From patent publication US20250099369A1, “TOPICAL DELIVERY COMPOSITIONS COMPRISING NON-STEROIDAL ANTI-INFLAMMATORY DRUGS” (Andros Pharmaceuticals Co., LTD., priority 2023, published 2025) come the findings set out here.

Molecules are shown by their SMILES.

The nature of this data set: physchem. Format: physicochemical. Conditions: 25 °C, aqueous buffer, thermodynamic from solid, Diclofenac Solubility. As to the method:
In the aqueous solution containing 1% boric acid, add SPC (0%, 1%, 3%, 5%, 8%, 10%, 13%, 15%, 18%, 20%) and urea (0%, 5%, 10%, 20%, 30%, 40%, 50%) and stir until complete dissolution. A total of 70 sample solutions with different SPC and urea concentrations were obtained.
An excess of diclofenac sodium was added to each set of sample solutions and stirred overnight at 25° C. The sample solution was centrifuged at 12,000 rpm for 5 minutes, and a portion of the supernatant was diluted with appropriate diluent and analyzed by HPLC, to determine the solubility of diclofenac sodium in aqueous solutions containing different concentrations of SPC and urea. The results are presented in Table1.

In the case of `O=C(O)Cc1ccccc1Nc1c(Cl)cccc1Cl` [diclofenac sodium], the solubility (in general, the concentration that dissolves in the medium under given conditions) stood at 19.7 mg/mL.
